These results are taken from PMC5107896 (Scientific Reports, 2016).

Common to all, as to type: biochemical
Experiment [1] deals with T1, Monoamine oxidase A (MAOA) (Homo sapiens, UniProt P21397).
T1 sequence (P21397 1-527): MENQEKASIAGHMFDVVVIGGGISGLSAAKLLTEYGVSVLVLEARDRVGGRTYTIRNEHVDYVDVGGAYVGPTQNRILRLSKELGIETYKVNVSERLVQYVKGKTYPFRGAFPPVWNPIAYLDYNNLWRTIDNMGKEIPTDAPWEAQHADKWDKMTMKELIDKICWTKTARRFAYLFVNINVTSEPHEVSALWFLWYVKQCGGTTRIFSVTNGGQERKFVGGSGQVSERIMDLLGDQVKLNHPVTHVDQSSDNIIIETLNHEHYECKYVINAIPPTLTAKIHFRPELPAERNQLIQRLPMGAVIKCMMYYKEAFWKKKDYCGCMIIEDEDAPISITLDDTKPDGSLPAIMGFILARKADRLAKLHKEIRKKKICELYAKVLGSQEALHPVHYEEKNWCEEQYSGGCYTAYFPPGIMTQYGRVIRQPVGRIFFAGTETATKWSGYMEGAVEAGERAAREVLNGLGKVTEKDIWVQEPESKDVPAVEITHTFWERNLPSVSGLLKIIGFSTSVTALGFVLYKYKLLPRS
In words: in vitro MAOA inhibition assay (enzyme purchased).

A further experiment deals with Factor Xa (F10) (Homo sapiens, UniProt P00742). Briefly: SensoLyte Rh110 Factor Xa Assay Kit (enzyme inhibition).
Sequence of Factor Xa (F10) (P00742 41-179): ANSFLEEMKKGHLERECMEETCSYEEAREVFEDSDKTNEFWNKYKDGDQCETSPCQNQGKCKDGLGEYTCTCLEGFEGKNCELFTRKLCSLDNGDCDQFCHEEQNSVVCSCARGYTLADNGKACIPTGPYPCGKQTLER
Sequence of Factor Xa (F10) (P00742 235-488): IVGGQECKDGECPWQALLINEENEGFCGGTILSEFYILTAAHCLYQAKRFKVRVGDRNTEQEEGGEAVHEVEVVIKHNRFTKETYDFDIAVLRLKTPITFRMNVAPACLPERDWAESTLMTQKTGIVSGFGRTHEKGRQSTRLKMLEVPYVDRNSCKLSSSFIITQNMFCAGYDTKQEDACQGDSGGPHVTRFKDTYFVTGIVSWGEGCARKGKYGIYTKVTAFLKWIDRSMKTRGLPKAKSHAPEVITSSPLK
The target of experiment [2] is T2, Prostaglandin G/H synthase 2 (PTGS2/COX2) (Ovis aries, UniProt P79208).
T2 sequence (P79208 17-603): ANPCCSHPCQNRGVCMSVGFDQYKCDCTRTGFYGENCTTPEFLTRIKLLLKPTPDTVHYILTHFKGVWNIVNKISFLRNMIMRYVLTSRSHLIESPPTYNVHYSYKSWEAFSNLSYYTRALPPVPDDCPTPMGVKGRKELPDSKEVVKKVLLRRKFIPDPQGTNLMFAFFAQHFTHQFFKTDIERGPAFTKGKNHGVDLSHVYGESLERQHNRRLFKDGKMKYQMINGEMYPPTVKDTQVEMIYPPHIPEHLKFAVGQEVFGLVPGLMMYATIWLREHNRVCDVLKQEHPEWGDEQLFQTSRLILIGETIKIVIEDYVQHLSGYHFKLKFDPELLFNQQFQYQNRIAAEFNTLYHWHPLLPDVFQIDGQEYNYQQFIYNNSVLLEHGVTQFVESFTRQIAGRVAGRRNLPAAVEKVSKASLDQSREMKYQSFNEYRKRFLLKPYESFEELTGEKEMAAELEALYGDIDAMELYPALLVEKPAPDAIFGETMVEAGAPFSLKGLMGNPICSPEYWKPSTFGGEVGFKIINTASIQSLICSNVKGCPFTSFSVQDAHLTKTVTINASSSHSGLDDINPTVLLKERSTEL
In words: Colorimetric COX (ovine) inhibitor screening assay kit (Cayman).

pIC50: −log10 of the molar value.

As usually defined, the pIC50 is the negative decadic logarithm of the IC50, by convention in mol/L. Higher therefore signals a small IC50. Molecule `O=c1cc(-c2ccc(O)c(O)c2)oc2cc(O)cc(O)c12` [luteolin] showed a pIC50 in experiment [1] of 8.00.
Take `O=C(/C=C/c1ccc(O)c(O)c1/C=C/c1ccc(O)c(O)c1)O[C@H](Cc1ccc(O)c(O)c1)C(=O)O` [salvianolic acid A]: the negative logarithm of the IC50 (pIC50) on Factor Xa (F10) was 7.05.
Molecule `O=c1c(O)c(-c2ccc(O)cc2)oc2cc(O)cc(O)c12` [kaempferol] had a pIC50 in experiment [2] of 4.43.
